Measurements as given in patent publication US8871680B2, “Herbicidal compositions comprising 4-amino-3-chloro-5-fluoro-6-(4-chloro-2-fluoro-3-methoxyphenyl) pyridine-2-carboxylic acid or a derivative thereof and a di-methoxy-pyrimidine and derivatives thereof” (Dow AgroSciences LLC, priority 2012, dated 2014).

Tests used:
[1] = test system: ECHCG; experiment: Postemergence foliar-applied weed control, direct seeded rice (greenhouse); type: in vivo, Echinochloa crusgalli (L.) Beauv.; details: 70 gai/ha
Text: (§1) Seeds or nutlets of the desired test plant species were planted in a soil matrix prepared by mixing a loam or sandy loam soil (e.g., 28.6 percent silt, 18.8 percent clay, and 52.6 percent sand, with a pH of about 5.8 and an organic matter content of about 1.8 percent) and calcareous grit in an 80 to 20 ratio. The soil matrix was contained in plastic pots with a volume of 1 quart and a surface area of 83.6 square centimeters (cm^2). When required to ensure good germination and healthy plants, a fungicide treatment and/or other chemical or physical treatment was applied. The plants were grown for 8-22 days in a greenhouse with an approximate 14 hr photoperiod which was maintained at about 29° C. during the day and 26° C. during the night. Nutrients (Peters Excel® 15-5-15 5-Ca 2-Mg and iron chelate) were applied in the irrigation solution as needed and water was added on a regular basis. Supplemental lighting was provided with overhead metal halide 1000-Watt lamps as necessary. The plants were employed for testing when they reached the first through fourth true leaf stage. […]
(§2) Treatment requirements were calculated based upon the rates being tested, the concentration of active ingredient or acid equivalent in the formulation, and a 12 mL application volume at a rate of 187 L/ha.
(§3) For treatments comprised of formulated compounds, measured amounts of compounds were placed individually in 25 mL glass vials and diluted in a volume of 1.25% (v/v) Agri-Dex® crop oil concentrated to obtain 12× stock solutions. […]
(§4) For treatments comprised of formulated and technical compounds, weighed amounts of the technical materials were placed individually in 25 mL glass vials and dissolved in a volume of 97:3 v/v acetone/DMSO to obtain 12× stock solutions, and measured amounts of the formulated compounds were placed individually in 25 mL glass vials and diluted in a volume of 1.5% (v/v) crop oil concentrate or water to obtain 12× stock solutions. […]

[2] = test system: FIMMI; experiment: In-water applied weed control, transplanted paddy rice (greenhouse); type: in vivo, Fimbristylis miliacea (L.) Vahl
Protocol: (§5) Weed seeds or nutlets of the desired test plant species were planted in puddled soil (mud) prepared by mixing a shredded, non-sterilized mineral soil (50.5 percent silt, 25.5 percent clay, and 24 percent sand, with a pH of about 7.6 and an organic matter content of about 2.9 percent) and water at a 1:1 volumetric ratio. The prepared mud was dispensed in 365 mL aliquots into 16-ounce (oz.) non-perforated plastic pots with a surface area of 86.59 square centimeters (cm^2) leaving a headspace of 3 centimeters (cm) in each pot. Mud was allowed to dry overnight prior to planting or transplanting. Rice seeds were planted in Sun Gro MetroMix® 306 planting mixture, which typically has a pH of 6.0 to 6.8 and an organic matter content of about 30 percent, in plastic plug trays. Seedlings at the second or third leaf stage of growth were transplanted into 860 mL of mud contained in 32-oz. non-perforated plastic pots with a surface area of 86.59 cm^2 4 days prior to herbicide application. The paddy was created by filling the headspace of the pots with 2.5 to 3 cm of water. When required to ensure good germination and healthy plants, a fungicide treatment and/or other chemical or physical treatment was applied. The plants were grown for 4-22 days in a greenhouse with an approximate 14 hr photoperiod which was maintained at about 29′C during the day and 26° C. during the night. Nutrients were added as Osmocote® (19:6:12, N:P:K+minor nutrients) at 2 g per 16-oz. pot and 4 g per 32-oz. pot. Water was added on a regular basis to maintain the paddy flood, and supplemental lighting was provided with overhead metal halide 1000-Watt lamps as necessary. The plants were employed for testing when they reached the first through fourth true leaf stage.
(§6) Treatments consisted of the acid or esters of 4-amino-3-chloro-5-fluoro-6-(4-chloro-2-fluoro-3-methoxy-phenyl)pyridine-2-carboxylic acid (compound A) each formulated as an SC and various herbicidal components alone and in combination. Forms of compound A were applied on an acid equivalent basis.
(§7) Other herbicidal components were applied on an active ingredient basis and included the dimethoxy-pyrimidine acid acetolactate synthase (ALS)-inhibiting herbicides bispyribac-sodium formulated as Regiment® 80 WP, pyriminobac-methyl formulated as Hie Clean®, and pyriftalid (technical grade material).
(§8) Treatment requirements for each compound or herbicidal component were calculated based upon the rates being tested, the concentration of active ingredient or acid equivalent in the formulation, an application volume of 2 mL per component per pot, and an application area of 86.59 cm^2 per pot.
(§9) For formulated compounds, a measured amount was placed in an individual 100 or 200 mL glass vial and was dissolved in a volume of 1.25% (v/v) Agri-Dex® crop oil concentrate to obtain application solutions.
(§10) For technical grade compounds, a weighed amount was placed in an individual 100 to 200 mL glass vial and was dissolved in a volume of acetone to obtain concentrated stock solutions. […] The concentrated stock solutions obtained were diluted with an equivalent volume of an aqueous mixture containing 2.5% (v/v) crop oil concentrate so that the final application solutions contained 1.25% (v/v) crop oil concentrate.
(§11) Applications were made by injecting with a pipetter appropriate amounts of the application solutions, individually and sequentially, into the aqueous layer of the paddy.
(§12) Control plants were treated in the same manner with the solvent blank. Applications were made so that all treated plant material received the same concentrations of acetone and crop oil concentrate.
(§13) The treated plants and control plants were placed in a greenhouse as described above and water was added as needed to maintain a paddy flood. […]

[3] = test system: BRAPP; experiment: Postemergence foliar-applied weed control, direct seeded rice (greenhouse); type: in vivo, Brachiaria platyphylla (Griseb.) Nash
Text: as §1, §2, §3, §4

[4] = test system: CYPRO; experiment: In-water applied weed control, transplanted paddy rice (greenhouse); type: in vivo, Cyperus rotundus L.
Protocol: as §5, §6, §7, §8, §9, §10, §11, §12, §13

[5] = test system: LEFCH; experiment: Postemergence foliar-applied weed control, direct seeded rice (greenhouse); type: in vivo, Leptochloa chinensis (L.) Nees
Text: Seeds or nutlets of the desired test plant species were planted in a soil matrix prepared by mixing a loam or sandy loam soil (e.g., 28.6 percent silt, 18.8 percent clay, and 52.6 percent sand, with a pH of about 5.8 and an organic matter content of about 1.8 percent) and calcareous grit in an 80 to 20 ratio. The soil matrix was contained in plastic pots with a volume of 1 quart and a surface area of 83.6 square centimeters (cm^2). When required to ensure good germination and healthy plants, a fungicide treatment and/or other chemical or physical treatment was applied. The plants were grown for 8-22 days in a greenhouse with an approximate 14 hr photoperiod which was maintained at about 29° C. during the day and 26° C. during the night. Nutrients (Peters Excel® 15-5-15 5-Ca 2-Mg and iron chelate) were applied in the irrigation solution as needed and water was added on a regular basis. Supplemental lighting was provided with overhead metal halide 1000-Watt lamps as necessary. The plants were employed for testing when they reached the first through fourth true leaf stage.
Treatments consisted of the acid or esters of 4-amino-3-chloro-5-fluoro-6-(4-chloro-2-fluoro-3-methoxy-phenyl)pyridine-2-carboxylic acid (Compound A), each formulated as an SC (suspension concentrate), and various herbicidal components alone and in combination. Forms of compound A were applied on an acid equivalent basis.
Other herbicidal components were applied on an active ingredient basis and included the dimethoxy-pyrimidine acid acetolactate synthase (ALS)-inhibiting herbicides bispyribac-sodium formulated as Regiment® 80WP, pyribenzoxim (technical grade material), pyriminobac-methyl formulated as Hie-Clean® 1.2% GR dissolved in water, and pyriftalid (technical grade material).
as §2
For treatments comprised of formulated compounds, measured amounts of compounds were placed individually in 25 mL glass vials and diluted in a volume of 1.25% (v/v) Agri-Dex® crop oil concentrated to obtain 12× stock solutions. […] Application solutions were prepared by adding an appropriate amount of each stock solution (e.g., 1 mL) and diluted to the appropriate final concentrations with the addition of 10 mL of an aqueous mixture of 1.25% (v/v) crop oil concentrate so that the final spray solutions contained 1.25+/−0.005% (v/v) crop oil concentrate.
For treatments comprised of technical compounds, weighed amounts can be placed individually in 25 mL glass vials and dissolved in a volume of 97:3 v/v acetone/DMSO to obtain 12× stock solutions. […] Application solutions can be prepared by adding an appropriate amount of each stock solution (e.g., 1 mL) and diluted to the appropriate final concentrations with the addition of 10 mL of an aqueous mixture of 1.5% (v/v) crop oil concentrate so that the final spray solutions contain 1.25% (v/v) crop oil concentrate. When technical materials are used, the concentrated stock solutions can be added to the spray solutions so that the final acetone and DMSO concentrations of the application solutions are 16.2% and 0.5%, respectively.
as §4

[6] = test system: SCPMA; experiment: In-water applied weed control, transplanted paddy rice (greenhouse); type: in vivo, Bolboschoenus maritimus (L.) Palla; details: 40 gai/ha
Protocol: as §5, §6, §7, §8, §9, §10, §11, §12, §13

[7] = test system: ECHOR; experiment: as above; type: in vivo, Echinochloa oryzoides (Ard.) Fritsch; details: 40 gai/ha
Protocol: as §5, §6, §7, §8, §9, §10, §11
(§14) Control plants were treated in the same manner with the solvent blank. […]

[8] = test system: LEFCH; experiment: as above; type: in vivo, Leptochloa chinensis (L.) Nees; details: 40 gai/ha
Protocol: as §5, §6, §7, §8, §9, §10, §11, §14

[9] = test system: ECHCG; experiment: as above; type: in vivo, Echinochloa crusgalli (L.) Beauv.
Protocol: as §5, §6, §7, §8, §9, §10, §11, §12, §13

SMILES: COc1cc(OC)nc(Oc2cccc(Oc3nc(OC)cc(OC)n3)c2C(=O)ON=C(c2ccccc2)c2ccccc2)n1 [Pyribenzoxim, diphenylmethanone O-[2,6-bis[(4,6-dimethoxy-2-pyrimidinyl)oxy]benzoyl]oxime, reference compound]
- Visual Weed Control (%) - 20 DAA ECHCG Obs [1]: 85%

SMILES: COc1cc(OC)nc(Sc2cccc3c2C(=O)OC3C)n1 (stereo not drawn) [Pyriftalid, 7-[(4,6-dimethoxy-2-pyrimidinyl)thio]-3-methyl-1 (3H)-isobenzofuranone, reference compound]
- Visual Weed Control (%)-21 DAA FIMMI Obs ([2]; 45 gai/ha): 50%
- Visual Weed Control (%)-21 DAA FIMMI Obs ([2]; 90 gai/ha): 30%
- Visual Weed Control (%)-22 DAA BRAPP Obs ([3]; 45 gai/ha): 0%
- Visual Weed Control (%)-22 DAA BRAPP Obs ([3]; 90 gai/ha): 0%
- Visual Weed Control (%)-21 DAA CYPRO Obs ([4]; 45 gai/ha, Table 12): 0%
- Visual Weed Control (%)-21 DAA CYPRO Obs ([4]; 45 gai/ha, Table 13): 0%
- Visual Weed Control (%)-21 DAA CYPRO Obs ([4]; 90 gai/ha, Table 12): 0%
- Visual Weed Control (%)-21 DAA CYPRO Obs ([4]; 90 gai/ha, Table 13): 0%
- Visual Weed Control (%)-22 DAA LEFCH Obs ([5]; 45 gai/ha): 0%
- Visual Weed Control (%)-22 DAA LEFCH Obs ([5]; 90 gai/ha): 0%

SMILES: COc1cc(OC)nc(Oc2cccc(Oc3nc(OC)cc(OC)n3)c2C(=O)[O-])n1.[Na+] [Bispyribac-Sodium, sodium 2,6-bis[(4,6-dimethoxy-2-pyrimidinyl)oxy]benzoate, reference compound]
- Visual Weed Control (%)-20 DAA SCPMA Obs ([6]; Table 7): 38%
- Visual Weed Control (%)-20 DAA SCPMA Obs ([6]; Table 8): 38%
- Visual Weed Control (%)-20 DAA SCPMA Obs ([6]; Table 9): 38%
- Visual Weed Control (%)-20 DAA ECHOR Obs ([7]; Table 7): 30%
- Visual Weed Control (%)-20 DAA ECHOR Obs ([7]; Table 9): 30%
- Visual Weed Control (%)-20 DAA CYPRO Obs ([4]; 10 gai/ha): 0%
- Visual Weed Control (%)-20 DAA CYPRO Obs ([4]; 20 gai/ha): 0%
- Visual Weed Control (%)-20 DAA LEFCH Obs ([5]; 7 gai/ha): 0%
- Visual Weed Control (%)-20 DAA LEFCH Obs ([5]; 14 gai/ha): 0%
- Visual Weed Control (%)-20 DAA LEFCH Obs [8]: 28%
- Visual Weed Control (%) - 20 DAA ECHCG Obs ([9]; 10 gai/ha): 20%
- Visual Weed Control (%) - 20 DAA ECHCG Obs ([9]; 20 gai/ha): 35%
- Visual Weed Control (%) - 20 DAA ECHCG Obs ([9]; 40 gai/ha): 30%
